Measurements from patent EP2633855A1, “Protease inhibitors for treating Trichomonas gallinae infections” (Veterinärmedizinische Universität Wien, priority 2012, dated 2013).
Square brackets hold non-standard residues; d marks the D form. Peptide text beside a SMILES is read from it. * marks the point of attachment. Sta = CC(C)C[C@H](N)[C@@H](O)CC(=O)O; Isovaleryl = CC(C)CC(=O)*

Key:
[1] = system: peptidase activity in T. gallinae cell-free filtrates; test: Conventional 1-D SDS-PAGE of cell-free filtrates with and without peptidase inhibitors; format: biochemical; details: clone 5895-C1/06 P49
Procedure: (§1) For analysis in one- (1-D) and two-dimensional (2-D) zymogram and conventional SDS PAGE the filtrate was prepared in the following way: T. gallinae clonal culture was grown in Hollander fluid (HF) medium as described recently (Amin et al., Exp. Parasitol. 124 (2010), 202-208). After 24 h of incubation, the trichomonad culture was centrifuged at 3300 x g for 5 min; the pellet was washed three times in phosphate buffer saline (PBS, pH 7.2) and was then suspended in 1 ml HF medium without serum. Motile trichomonads were counted by a Neubauer cell counting chamber (Reichert, Buffalo, NY). The concentration of the inoculum was adjusted to 10^7 motile trophozoites. 10^7 trichomonad cells were grown for 3, 6, 16, 24 h in 10 ml HF medium without serum and the cell-free filtrate was prepared. The trichomonad culture was centrifuged at 3300 x g for 5 min, and then the supernatant from the culture was filtered through 0.22 µm cellulose acetate filters (Millipore, VWR). Afterwards, 1 mM PMSF, 5 µM of Pepstatin A, 1 mM TLCK and 270 µM E-64 were added to the cell-free filtrate and incubated for 30 min on ice before concentrating the proteins. Two types of filters were used to concentrate the proteins of the cell-free filtrate. Firstly, CEN-TRIPREP® Centrifugal Filter Device 3K (Millipore, Vienna, Austria) was applied to reduce the initial volume of the filtrate (15ml) to 500 µl. After that, the samples were more concentrated using Amicon® Ultra-0.5 3K centrifugal filter device (Millipore, Vienna, Austria) to obtain a final volume of 100 µl. Both types of filters were used following manufacturer's instructions. With the samples for 2-dimensional (2-D) sodium dodecyl sulphate (SDS)-polyacrylamide gel electrophoresis (PAGE) buffer was exchanged (three times) to 10 mM Tris-Cl pH 7.2 by using the same Amicon® Ultra-0,5 3K centrifugal filter device (Millipore,Vienna, Austria). For all samples the protein concentration was measured by Bradford Reagent (Fermentas, Thermo Scientific).
(§2) For one dimension (1-D) zymographic analysis, 24 µg of concentrated p 183 proteins from cell free filtrates with and without peptidase inhibitors were separated by discontinuous SDS-PAGE (8%) copolymerized with 0.2% gelatin as substrate. In parallel, the same samples were investigated by conventional 1-D SDS-PAGE (8%). After electrophoresis, the substrate gel was incubated in 2.5% Triton X-100 (Bio-Rad Laboratories GmbH, Vienna, Austria) for 1 h at room temperature to remove SDS. Subsequently the peptidases were activated by incubating the gel in zymogram development buffer (Bio-Rad Laboratories GmbH, Vienna, Austria) for 24 h at 37 °C. […]

[2] = system: LMH monolayer; test: Cytopathic effect of T. gallinae cell-free filtrate on LMH monolayer (monolayer detachment, lesion score); format: cell-based, chicken; details: compared with filtrate without inhibitors
Procedure: Permanent chicken liver (LMH) cells were grown in Medium 199 + Earle's salts + L-Glutamine (Invitrogen/Gibco, Paisley, U.K.). The medium was supplemented with 10% of FBS, 10% Tryptose Phosphate broth, penicillin (40,000 IU/ml) and streptomycin ([…]) (all Invitrogen/Gibco, Paisley, U.K). One milliliter of the media suspension containing 1x10^6 cells was inoculated into 75 cm^2 flasks with filtered caps (Sarstedt, Wiener Neudorf, Austria) containing 6 ml medium. Cells were kept in a controlled atmosphere of 5% CO2 at 37°C and around 85-90% humidity. After 72 h of incubation, a confluent monolayer of LMH cells was obtained with an average of 7x10^6 cells per flask. Cells were passaged every three to four days depending on their density.
(§3) For the analysis on LMH monolayers cell-free filtrate was prepared in the following way: 10^7 cells of a clonal culture of T. gallinae were incubated at 37°C for 24 h in the same medium as used for growth of LMH. Before incubation the protozoal cells were washed three times in PBS, (pH 7.2), trichomonad culture was centrifuged at 3300 x g for 5 min and then the supernatant from the culture was filtered through 0.22 µm cellulose acetate filters (Millipore, VWR).
Each monolayer was investigated visually by an inverted 158 light microscope to detect the effect of the cell-free filtrates on LMH monolayer. Assesment of the monolayer was performed as recently described (Amin et al., Vet.Parasitol. (2011), doi: 10.1016/j.vetpar.2011.11.037).
Firstly, preliminary experiments were done to establish the concentration of each peptidase inhibitor which was not toxic to the monolayer cell culture. In these initial experiments different concentrations of the following peptidase inhibitors were added to not-infected monolayer: 0.2 mM, 0.5 mM, 1 mM Phenylmethylsulfonyl fluoride (PMSF) as serine peptidase inhibitor, 1 µM, 2.5 µM, 5 µM pepstatin A as aspartic peptidase inhibitor, 135 µM, 540 µM, 1 mM N-α-p-Tosyl-L-Lysine chloromethyl ketone (TLCK) as cysteine and some serine peptidase inhibitor, and 70 µM 140 µM, 270 µM L-3-carboxyl-2,3-trans-epoxysuccinylleucylamido (4-guanidino) butane (E-64) as cysteine peptidase inhibitor (all purchased from Sigma-Aldrich, Steinheim, Germany).

[3] = system: T. gallinae clone 5895-C1/06 P18; test: Infection of spf chicken embryos with T. gallinae coincubated with peptidase inhibitors (mortality, necropsy, histology, PCR, ISH); format: in vivo, Trichomonas gallinae; details: for detection of trichomonad nucleic acid by ISH / histopathological examination of different organs of infected embryos: spf chicken embryos
Procedure: (§4) The axenic clonal cultures of T. gallinae were grown in Hollander fluid (HF) medium, as described above (Amin et al., 2010). At first, clonal cultures which underwent only a few passages were investigated. Higher passages were obtained by transferring 1 ml of the respective culture into 9 ml of fresh HF medium every 48 h. Assessing the virulence as well as the effect of peptidase inhibitors was performed with an equal passage number (P18). After 24 h of incubation, the cultures were centrifuged at 3300 x g for 5 min (Hettich Rotanta 460, Tuttlingen, Germany). The pellet was washed three times by addition of phosphate buffer saline (PBS, pH 7.2) followed by centrifugation. For counting cells were suspended in 1 ml PBS buffer and motile trichomonads were determined by a Neubauer cell counting chamber (Reichert, Buffalo, NY, USA). The concentration of the inoculum was adjusted to contain approximately 5x10^6 actively motile trophozoites suspended in 200 µl PBS buffer. The viability of trichomonad cells was evaluated using trypan blue staining.
(§5) For each treatment, ten 9-day old embryonated spf chicken eggs were inoculated with 200 µl of the individual sample of protozoa suspended in sterile PBS via the allantoic cavity following a standard egg inoculation procedure (Senne, 1998). In addition, ten eggs were inoculated in the same way with sterile PBS with and without an adjusted concentration of peptidase inhibitors, to be used as a control. The inoculated eggs were sealed with melted paraffin and incubated at 37°C at a relative humidity of 55-60%. The survival of the embryos was monitored by candling the eggs daily. At the end of the incubation period (10 days) the eggs were placed at -20°C for two hours to kill the embryos and to avoid hatching. The allantoic fluid was harvested and examined microscopically for the detection of flagellates, before the embryos were necropsied. Afterwards, samples from different organs (liver, heart, lung, proventriculus, gizzard, kidney, spleen, and intestine) were preserved in 10% buffered neutral formalin and later on embedded in paraffin wax for histological examination. […] Additionally, samples from liver and gut were preserved at -20°C for polymerase chain reaction (PCR). DNA was extracted from tissue samples applying the Dneasy® Tissue Kit (Qiagen, Vienna, Austria), according to the manufacturer instructions. PCR was performed following the protocol of Grabensteiner and Hess (Vet. Parasitol. 142 (2006), 223-230). The embryos that died during the experiments were exposed to the same examination procedures. During necropsy autoclaved scissors and disposable tweezers were used for collecting the samples to avoid cross contamination.

[4] = system: embryonated spf chicken eggs; test: Toxicity of peptidase inhibitors in PBS to non-infected spf chicken embryos (control groups); format: in vivo
Procedure: as §5, with “PCR was performed following the protocol of Grabensteiner and Hess (Vet. Parasitol. 142 (2006), 223-230). The embryos that died during the experiments were exposed to the same examination procedures. During necropsy autoclaved scissors and disposable tweezers were used for collecting the samples to avoid cross contamination.” left out

[5] = system: peptidase activity in T. gallinae cell-free filtrates; test: One-dimensional substrate (0.2% gelatin) SDS-PAGE zymogram of cell-free filtrates; format: biochemical; details: clone 5895-C1/06 P49 and P130
Procedure: as §1, §2

[6] = system: T. gallinae trophozoites; test: Viability of trichomonads with peptidase inhibitors (trypan blue staining); format: cell-based; details: read-out: optimum concentration that had no effect on the viability of T. gallinae trophozoites
Procedure: as §4

[7] = system: Entamoeba histolytica; details: SCID mice; preincubation of the trophozoites with the inhibitor; cited from earlier work
[8] = system: LMH cells; test: CellTiter 96 aqueous one solution cytotoxicity assay of cell-free filtrate on LMH cells; format: cell-based, chicken; details: Gallus gallus; 270 µM E-64; 72 h of incubation; clone 5895-C1/06, passage 18; filtrate without E-64: 70.9%; read-out: cytotoxicity of the cell-free filtrate on LMH cells in the presence of the inhibitor
Procedure: as §3
In order to investigate the cytotoxicity of cell-free filtrate on cell culture, CellTiter 96® aqueous one solution cell proliferation assay (Promega Corporation, Madison, USA) was used following manufacturer's instructions. The cell-free filtrate from 10^7 trichomonad cells was prepared as described above and 270 µM of E-64 as cysteine peptidase inhibitor was added to cell-free filtrate before its incubation with the monolayer. Cytotoxicity assay was performed as described recently by Amin et al. (2011).

Q: With `Cc1ccc(S(=O)(=O)N[C@@H](CCCCN)C(=O)CCl)cc1` [TLCK, N-α-p-Tosyl-L-Lysine chloromethyl ketone] as the compound, how does the “band pattern in conventional SDS-PAGE” value ([1]; 1 mM TLCK) read?
A: The value was “pattern of sharp bands”.

Q: What about the “cytopathic effects induced by trichomonads (detachment of the monolayer)” value (“cytopathic effects induced” below) ([2]; 135 µM TLCK added to cell-free filtrate of clone 5895-C1/06) of the same compound?
A: The value was “partially inhibited cytopathic effects”.

Q: What about the “PCR results from the liver and gut of infected embryos” value ([3]; 675 µM TLCK coincubated) of the same compound?
A: Its value is “positive PCR results”.

Q: And the “PCR results: infiltration of the flagellate to the liver” value ([3]; 675 µM TLCK, compared with E-64)?
A: The value was “more distinct inhibitory effect on the infiltration of the flagellate to the liver than E-64”.

Q: And the “detection of trichomonad nucleic acid by ISH” value ([3]; 675 µM TLCK)?
A: The value was “nucleic acid of trichomonds was demonstrated by ISH in the hepatic parenchyma”.

Q: And the “histopathological examination of different organs of infected embryos” value ([3]; 675 µM TLCK)?
A: The value was “no histological changes”.

Q: What about the “cytotoxic effect on the embryos, mortalities or pathomorphological changes in negative control groups” value ([4]; 675 µM TLCK in PBS) of the same compound?
A: Its value is “no cytotoxic effect on the embryos”.

Q: And the “proteolytic bands on zymograms of cell-free filtrates” value ([5]; 1 mM TLCK)?
A: The value was “No proteolytic bands were observed”.

Q: And the MNTC [6]?
A: Its MNTC is 675 µM.

Q: What does the source list for `O=S(=O)(F)Cc1ccccc1` [PMSF, Phenylmethylsulfonyl fluoride]?
A: band pattern in conventional SDS-PAGE ([1]; 1 mM PMSF): this pattern was not prominent; cytopathic effects induced by trichomonads (detachment of the monolayer) ([2]; 1 mM PMSF added to cell-free filtrate of clone 5895-C1/06): partially inhibited cytopathic effects; proteolytic bands on zymograms of cell-free filtrates ([5]; 1 mM PMSF): same proteolytic regions as the sample without inhibitors

Q: For `CC(C)CC(NC(=O)C1OC1C(=O)O)C(=O)NCCCCNC(=N)N` [E-64, L-3-carboxyl-2,3-trans-epoxysuccinylleucylamido (4-guanidino) butane], which “liver abscesses produced by Entamoeba histolytica” value [7] is on record?
A: The value was “greatly reduced”.

Q: What about the “band pattern in conventional SDS-PAGE” value ([1]; 270 µM E-64) of the same compound?
A: The value was “pattern of sharp bands”.

Q: What about the “cytopathic effects induced” value ([2]; 270 µM E64 added to cell-free filtrate of clone 5895-C1/06) of the same compound?
A: Its value is “best inhibition”.

Q: What about the “cytopathic effects induced” value ([2]; 270 µM E64 added to cell-free filtrate of clone 5895-C1/06, listed as E64) of the same compound?
A: The value was “partially inhibited cytopathic effects”.

Q: And the “PCR results: infection in the presence versus absence of inhibitor” value ([3]; 270 µM E-64)?
A: Its value is “no considerable differences”.

Q: What about the “detection of trichomonad nucleic acid by ISH” value ([3]; 270 µM E-64) of the same compound?
A: The value was “nucleic acid of trichomonds was demonstrated by ISH in the hepatic parenchyma”.

Q: What about the “histopathological examination of different organs of infected embryos” value ([3]; 270 µM E-64) of the same compound?
A: Its value is “no histological changes”.

Q: What about the “PCR results from the liver and gut of infected embryos” value ([3]; 270 µM E-64 coincubated) of the same compound?
A: Its value is “positive PCR results”.

Q: And the “cytotoxic effect on the embryos, mortalities or pathomorphological changes in negative control groups” value ([4]; 270 µM E-64 in PBS)?
A: The value was “no cytotoxic effect on the embryos”.

Q: And the “proteolytic bands on zymograms of cell-free filtrates” value ([5]; 270 µM E-64)?
A: Its value is “No proteolytic bands were observed”.

Q: And the cytotoxicity at 270 µM [8]?
A: The cytotoxicity at 270 µM was 37.1%.

Q: What about the MNTC [6] of the same compound?
A: Its MNTC is 270 µM.

Q: For `CC(C)CC(=O)N[C@H](C(=O)N[C@H](C(=O)N[C@@H](CC(C)C)[C@@H](O)CC(=O)N[C@@H](C)C(=O)N[C@@H](CC(C)C)[C@@H](O)CC(=O)O)C(C)C)C(C)C` [Pepstatin A, pepstatin A] (Isovaleryl-VV[Sta]A[Sta]-OH), which “band pattern in conventional SDS-PAGE” value ([1]; 5 µM Pepstatin A) is on record?
A: Its value is “this pattern was not prominent”.

Q: And the “cytopathic effects induced” value ([2]; 5 µM Pepstatin A added to cell-free filtrate of clone 5895-C1/06)?
A: Its value is “no inhibitory effect”.

Q: What about the “proteolytic bands on zymograms of cell-free filtrates” value ([5]; 5 µM Pepstatin A) of the same compound?
A: The value was “same proteolytic regions as the sample without inhibitors”.
